Laboratory results from ChEMBL document CHEMBL1134555 (J Med Chem, 2001).

Target: Nitric oxide synthase 1 (Rattus norvegicus, UniProt P29476)
Test: Inhibitory activity against recombinant rat nNOS.

Chain of Nitric oxide synthase 1 (P29476 whole entry): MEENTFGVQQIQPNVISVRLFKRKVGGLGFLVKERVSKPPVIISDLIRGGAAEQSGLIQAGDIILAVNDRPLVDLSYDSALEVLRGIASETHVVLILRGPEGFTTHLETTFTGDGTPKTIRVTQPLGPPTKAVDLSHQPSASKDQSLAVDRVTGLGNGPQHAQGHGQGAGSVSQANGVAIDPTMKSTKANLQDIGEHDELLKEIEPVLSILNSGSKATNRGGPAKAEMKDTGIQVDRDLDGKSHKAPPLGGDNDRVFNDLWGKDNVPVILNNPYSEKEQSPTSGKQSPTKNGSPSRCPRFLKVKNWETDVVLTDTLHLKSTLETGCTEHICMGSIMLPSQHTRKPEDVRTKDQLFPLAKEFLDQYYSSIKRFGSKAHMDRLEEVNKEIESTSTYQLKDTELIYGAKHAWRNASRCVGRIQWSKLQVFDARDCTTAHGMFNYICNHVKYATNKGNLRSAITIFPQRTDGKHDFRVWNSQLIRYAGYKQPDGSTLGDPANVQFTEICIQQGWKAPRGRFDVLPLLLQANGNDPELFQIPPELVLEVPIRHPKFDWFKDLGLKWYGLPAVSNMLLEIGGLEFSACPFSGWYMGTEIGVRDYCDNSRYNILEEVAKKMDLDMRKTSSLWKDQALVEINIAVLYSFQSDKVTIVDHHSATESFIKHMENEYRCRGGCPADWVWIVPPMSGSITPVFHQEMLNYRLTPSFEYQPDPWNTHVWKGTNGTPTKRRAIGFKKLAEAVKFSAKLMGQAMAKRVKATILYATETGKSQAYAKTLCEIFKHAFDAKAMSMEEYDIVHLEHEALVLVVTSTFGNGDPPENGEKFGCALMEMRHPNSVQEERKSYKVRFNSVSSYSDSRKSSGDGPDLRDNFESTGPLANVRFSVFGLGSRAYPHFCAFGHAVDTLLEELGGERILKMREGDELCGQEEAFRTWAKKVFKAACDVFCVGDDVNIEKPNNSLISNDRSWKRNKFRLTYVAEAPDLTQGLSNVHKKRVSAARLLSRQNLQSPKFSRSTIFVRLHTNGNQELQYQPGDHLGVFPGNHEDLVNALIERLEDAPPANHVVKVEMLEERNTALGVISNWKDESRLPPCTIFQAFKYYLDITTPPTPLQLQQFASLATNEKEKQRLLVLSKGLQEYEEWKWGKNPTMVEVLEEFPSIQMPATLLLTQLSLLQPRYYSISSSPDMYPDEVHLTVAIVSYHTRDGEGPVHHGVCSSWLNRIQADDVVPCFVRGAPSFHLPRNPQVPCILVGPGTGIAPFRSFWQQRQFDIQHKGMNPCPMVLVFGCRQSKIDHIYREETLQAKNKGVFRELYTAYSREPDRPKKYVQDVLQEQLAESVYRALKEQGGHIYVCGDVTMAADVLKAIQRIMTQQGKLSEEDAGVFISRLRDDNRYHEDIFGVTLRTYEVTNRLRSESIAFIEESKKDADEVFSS

SMILES | Ki
N=C(NCCC[C@H](N)C(=O)NCCCCN)N[N+](=O)[O-] | 0.35 µM
N=C(NCCC[C@H](N)C(=O)NCCN)N[N+](=O)[O-] | 0.54 µM
N=C(NCCC[C@H](N)C(=O)NCCCN)N[N+](=O)[O-] | 0.46 µM
